How the values were obtained:
COVID-19 virus = experiment: Inhibition of cytopathic effect caused by COVID-19 virus in VeroE6 cells; type: cell-based; conditions: for inhibition of the cytopathic effect caused by the COVID-19 virus (in words): Example 2, VeroE6 cells
[1] = system: guinea pigs which had inhaled smoke; experiment: Airway resistance and lung function of guinea pigs which had inhaled smoke; type: in vivo, guinea pig
Protocol: The smoke-induced model was a classic animal model for chronic obstructive pulmonary disease. After inhaling smoke for a long period of time, animals could suffer from increased mucus secretion, airway obstruction, lung function decline, etc. The effect of the lysozyme on airway obstruction was evaluated by means of the model establishment method in the present experiment.
Lysozyme, monoammonium glycyrrhizinate, and monopotassium glycyrrhizinate.
Male Hartley guinea pigs, weighing 400 to 500 g, were randomly divided into a blank group, a model group, a lysozyme oral administration group (200 mg/kg), a lysozyme inhalation group (2 mg/kg), lysozyme+monoammonium glycyrrhizinate inhalation group (2 mg/kg+0.1 mg/kg), lysozyme+monopotassium glycyrrhizinate oral administration group I (200 mg/kg+20 mg/kg), and lysozyme+monopotassium glycyrrhizinate oral administration group II (200 mg/kg+40 mg/kg), with eight animals in each group.
The animals in each group except the blank group were exposed to cigarette smoke by using a smoke exposure system for oro-nasal inhalation only, such that the animals inhaled smoke of five cigarettes within 40 minutes per day, for 5 exposure days per week, for 12 consecutive weeks.
The lysozyme and monoammonium glycyrrhizinate used for inhalation administration were respectively crushed into powders with a particle size of less than 10 μm. The lysozyme and monopotassium glycyrrhizinate used for oral administration were respectively dissolved in normal saline.
The animals in each group except the blank group and the model group were administered once a day for 4 consecutive weeks from the 8th week after the model establishment began. The inhalation administration groups were administered by means of an oro-nasal inhalation exposure system, while the oral administration groups were administered intragastrically. Animals in the blank group and the model group were administered intragastrically with normal saline per day.
Airway resistance measurement and 100 ms (millisecond) expiratory volume measurement were performed after administration.
The animals were placed in a double chamber plethysmography system, and after the animals were left in a tranquil state for 10 minutes, the specific airway resistance (sRaw) was measured. The animals were anesthetized by intramuscular injection of ketamine, then a catheter was then inserted into the trachea, and the forced expiratory volume in 100 ms (FEV 100) of the animals was measured through a lung function testing system.

[2] = system: lipopolysaccharide-induced intestinal barrier dysfunction in mice; experiment: Intestinal permeability (serum FITC-glucan) in lipopolysaccharide-induced intestinal barrier dysfunction in mice; type: in vivo, mouse; conditions: 100 mg/kg intragastrically, 30 days, model 35.06, blank 9.40
Source text: Lipopolysaccharides could cause impaired intestinal function in animals. The protective effect of lysozyme and lysozyme combinations against lipopolysaccharide-induced intestinal barrier dysfunction in mice were studied in the present experiment.
Test drugs: lysozyme, monoammonium glycyrrhizinate, and dipotassium glycyrrhizinate.
Test animals: clean-grade male C57BL/6 mice, weighing 20 to 25 g.
Animal grouping and administration: The animals were randomly divided into a blank group, a model group, a lysozyme group (100 mg/kg), lysozyme+monoammonium glycyrrhizinate group A (100 mg/kg+2 mg/kg), lysozyme+monoammonium glycyrrhizinate group B (100 mg/kg+10 mg/kg), lysozyme+monoammonium glycyrrhizinate group C (100 mg/kg+20 mg/kg), and a lysozyme+dipotassium glycyrrhizinate group (100 mg/kg+2 mg/kg), with eight animals in each group. […]
Determination of intestinal permeability: The animals of each group were administered intragastrically with 600 mg/kg of FITC-glucan (dissolved in a phosphate buffer), and after 4 hours, blood was taken from eyeballs. The content of the FITC-glucan in the serum was measured by means of fluorescence spectrometry (with an excitation wavelength of 480 nm and an emission wavelength of 520 nm), and the results were shown in Table 5.

occludin protein = experiment: Occludin mRNA expression in jejunum tissue of lipopolysaccharide-treated mice (quantitative PCR); type: in vivo, mouse; conditions: 100 mg/kg, model 0.54, blank 1.04
Protocol: (§1) Animal grouping and administration: The animals were randomly divided into a blank group, a model group, a lysozyme group (100 mg/kg), lysozyme+monoammonium glycyrrhizinate group A (100 mg/kg+2 mg/kg), lysozyme+monoammonium glycyrrhizinate group B (100 mg/kg+10 mg/kg), lysozyme+monoammonium glycyrrhizinate group C (100 mg/kg+20 mg/kg), and a lysozyme+dipotassium glycyrrhizinate group (100 mg/kg+2 mg/kg), with eight animals in each group. Each drug group was administered intragastrically by each dose of drugs every day, while the blank group and the model group were administered with normal saline. The administration was performed for 30 consecutive days.
(§2) Model establishment: After administration, the animals of each group except the blank group were intraperitoneally injected with 15 mg/kg of lipopolysaccharides, and the blank group was injected with normal saline. The animals were fasted for 12 hours after injection.
(§3) Determination of expression of tight junction proteins in intestinal tissue: After the animals were sacrificed, jejunum tissue samples were taken for RNA extraction, the relative expression levels of occludin protein and Claudin-1 protein in the tissues were detected by quantitative PCR and the results were shown in Table 6.

Claudin-1 protein = experiment: Claudin-1 mRNA expression in jejunum tissue of lipopolysaccharide-treated mice (quantitative PCR); type: in vivo, mouse; conditions: 100 mg/kg, model 0.73, blank 1.07
Protocol: as §1, §2, §3

[3] = inhalation, 2 mg/kg once a day for 4 weeks

Row | Compound | Inhibition rate (%) (COVID-19 virus; 1000 μg/ml, VeroE6 cells, 100 TCID50, 4 days) | Inhibition rate (%) (COVID-19 virus; 2000 μg/ml, VeroE6 cells, 100 TCID50, 4 days) | inhibition of the cytopathic effect caused by the COVID-19 virus (in words) (COVID-19 virus) | Inhibition rate (%) (COVID-19 virus; 350 μg/ml, Example 3) | 100 ms expiratory volume [1, 3] | Airway resistance (cmH2O · s) [1, 3] | 100 ms expiratory volume ([1]; oral administration, 200 mg/kg once a day for 4 weeks, model 4.18, blank 11.86) | Airway resistance (cmH2O · s) ([1]; oral administration, 200 mg/kg once a day for 4 weeks, model 4.72, blank 1.43) | Content of FITC-glucan [2] | Relative expression quantity of Occludin mRNA (occludin protein) | Relative expression quantity of Claudin-1 mRNA (Claudin-1 protein)
1 | CC1(C)[C@@H](O[C@H]2O[C@H](C(=O)O)[C@@H](O)[C@H](O)[C@H]2O[C@@H]2O[C@H](C(=O)O)[C@@H](O)[C@H](O)[C@H]2O)CC[C@]2(C)[C@H]3C(=O)C=C4[C@@H]5C[C@@](C)(C(=O)O)CC[C@]5(C)CC[C@@]4(C)[C@]3(C)CC[C@@H]12.N [Monoammonium glycyrrhizinate, monoammonium glycyrrhizinate] | 23.35 ± 5.43% | 29.42 ± 7.16% | relatively weak inhibition effect |  |  |  |  |  |  |  | 
2 | lysozyme |  |  | significantly inhibited | 6.67 ± 1.56% | 7.68 ± 1.36 mL | 3.10 ± 0.14 cmH2O · s | 5.79 ± 2.03 mL | 3.79 ± 0.30 cmH2O · s | 27.53 ± 3.21 µg/mL | 0.69 ± 0.07 | 0.79 ± 0.16

Reference: patent US20220305092A1, “MEDICAMENT AND FOOD FOR PREVENTING OR TREATING NOVEL CORONAVIRUS PNEUMONIA COVID-19 AND USE THEREOF” (GUANGZHOU CENTURY CLINICAL RESEARCH CO., LTD, priority 2020, published 2022)
